Laboratory results from US11110080B2, “Small molecule inhibitors of bacterial efflux pumps and methods of using same” (The Regents of the University of Colorado, a body Corporate, priority 2017, dated 2021).
Where “and” joins values, the source holds several entries; their conditions need not be identical. Equal entries are not always repeated. Entries after “also recorded” stand apart in the source; their conditions may differ. Where two headings read alike, the source gives them in different places.

How the values were obtained:
Enterobacter cloacae = experiment: Nile Red export in MDR clinical isolate; type: cell-based; conditions: after glucose addition
Description: (§1) Six pathogens that cause the bulk of MDR nosocomial infections have been dubbed the ESKAPE pathogens: Enterococcus faecium, Staphylococcus aureus, Klebsiella pneumoniae, Acinetobacter baumannii, Pseudomonas aeruginosa, and Enterobacter species (56).
(§2) Referring to FIGS. 22A-22D: Defined strains obtained from BEI resources were examined for Nile Red retention after glucose addition in the presence of the indicated compound. *p<0.05; **p<0.01; ***p<0.001; ****p<0.0001 as determined by comparison to DMSO+glucose with a one-way ANOVA and Dunnett's multiple comparison post-test.
(§3) Nile Red assays were adapted from an established protocol. Briefly, overnight Salmonella cultures were grown in Mueller-Hinton cation-adjusted broth (Sigma), washed, and resuspended at an OD600 of 2.0. Cells were incubated in 10 μM Nile Red for 3 hours at 37° C. with aeration, then moved to room temperature for 1 hour. After pelleting at 2000× g, dye-loaded cells were aliquoted and combined with compound at the indicated concentrations. Two hundred microliters was loaded into 96-well black walled plates (Greiner) and read using a Varioskan Flash Multimode Reader with 540 nm excitation and 625 nm emission filters. We observed that during loading into plates (˜20 minutes), bacteria were able to efflux Nile Red even in the absence of glucose (FIG. 8A). […]

S.Tm efflux pumps [1] = experiment: Nile Red efflux assay; type: cell-based, Salmonella enterica serovar Typhimurium; conditions: for glucose-activated efflux of Nile Red: 100 μM; for Nile Red efflux after washout of compound: 15 minutes with compound, washed, then glucose; for Nile Red fluorescence in the absence of glucose (basal loss): no glucose
Description: Because Hoechst and other dyes commonly used to assess efflux bind cellular components, direct measurement of efflux is not possible using these methods; instead, the Hoechst assay measures dye accumulation, the net result of entry and efflux. Further, the slow off-rate of Hoechst entails that efflux pumps have no effect on dye already bound to DNA. As a result, compounds which increase Hoechst accumulation may actually enhance dye entry by altering porins or disrupting the membrane. To more specifically measure efflux pump activity, a second technique was employed using the dye Nile Red, a lipophilic membrane-partitioning dye which fluoresces in nonpolar environments. Because Nile Red is not known to bind cellular components, to directly observe efflux cells were preloaded with the dye in the absence of glucose to reduce efflux pump activity (FIG. 7A). Upon addition of glucose, bacteria rapidly effluxed Nile Red and fluorescence returned to baseline levels (FIG. 7B, top panel). […] The initial measured fluorescence was lower for DMSO-treated cells (upper dotted line) than for PAβN-treated cells due to glucose-independent efflux during sample preparation (FIG. 8A). Next, it was determined whether efflux pump activity is restored after removal of PAβN. Bacteria were incubated with compound for 15 minutes, pelleted and resuspended in buffer lacking compound, and then stimulated with glucose (FIGS. 7C, 7E).
Nile Red assays were adapted from an established protocol. Briefly, overnight Salmonella cultures were grown in Mueller-Hinton cation-adjusted broth (Sigma), washed, and resuspended at an OD600 of 2.0. Cells were incubated in 10 μM Nile Red for 3 hours at 37° C. with aeration, then moved to room temperature for 1 hour. After pelleting at 2000× g, dye-loaded cells were aliquoted and combined with compound at the indicated concentrations. Two hundred microliters was loaded into 96-well black walled plates (Greiner) and read using a Varioskan Flash Multimode Reader with 540 nm excitation and 625 nm emission filters. We observed that during loading into plates (˜20 minutes), bacteria were able to efflux Nile Red even in the absence of glucose (FIG. 8A). To activate efflux, glucose was added to a final concentration of 2 mM. In some experiments, bacteria were treated with drug for 15 minutes, pelleted at 16,000×g, resuspended in fresh buffer, and stimulated with 2 mM glucose. All wash and incubation steps were performed in PBS with 1 mM MgCl2; incubations were performed in glass tubes to reduce adhesion of Nile Red.

S.Tm efflux pumps [2] = experiment: Hoechst 33342 accumulation assay; type: cell-based, Salmonella enterica serovar Typhimurium
Description: Efflux pumps (EPs) represent a key pathogen virulence strategy to protect against host antimicrobials as well as therapeutic antibiotics. […] To uncover putative EPMs within our collection of hits, 58 repurchased compounds were screened in a Hoechst accumulation assay. Bacteria were incubated with Hoechst 33342, a dye which fluoresces when bound to DNA.
Hoechst accumulation assays were performed essentially as described in the literature. Briefly, overnight Salmonella cultures were washed 3 times in PBS and diluted to an OD of 0.1 in PBS with 2.5 μM Hoechst 33342 in the presence of the indicated concentrations of compounds. Fluorescence was monitored on a Biotek Synergy 2 with a 360/40 nm excitation filter and 460/40 nm emission filter. The maximum Hoechst fluorescence over 60 minutes of incubation was normalized to the signal from the equivalent number of heat-killed bacteria, after subtraction of autofluroescent signal determined from compound incubated in the absence of bacteria. Curve fitting to determine EC50s was performed using GraphPad Prism.

E. coli = experiment: Nile Red export in E. coli; type: cell-based; conditions: after glucose addition
Description: as §1, §2, §3

K. pneumoniae = experiment: Nile Red export in MDR clinical isolate; type: cell-based, Klebsiella pneumoniae; conditions: after glucose addition
Description: as §1, §2, §3

[3] = test system: extracellular S.Tm grown in MHB broth; experiment: Broth activity assay (growth / MIC in Mueller Hinton Broth); type: cell-based, Salmonella enterica serovar Typhimurium; conditions: Salmonella enterica, three Salmonella strains SL1344, MAR1, S10801
Description: (§4) Overnight Salmonella cultures were washed 3 times in PBS and diluted to an OD of 0.01 in Mueller Hinton Broth in 96-well flat bottom plates. Compound was added using a pin tool (CyBio) or manually, yielding a final concentration of no more than 1% DMSO. Plates were grown at 37° C. shaking and OD600 was monitored using a BioTek Eon incubator shaker microplate absorbance reader. For experiments in defined media, bacteria were grown in M9 minimal media supplemented with 100 mM Tris pH 7.4, 0.35% glycerol, 0.002% histidine, 10 mM MgCl2, and 0.1% casamino acids. Where indicated, media was supplemented with 5 μg/ml polymyxin B or 0.2 mM H2O2. For experiments with LL-37, bacteria were grown in M9 minimal media supplemented with 0.4% dextrose, 0.004% histidine, 1 mM MgSO4, and 5 μg/ml LL-37. For checkerboard assays, MIC was defined as the concentration at which no growth was visually observed.

[4] = test system: S.Tm wild-type SL1344, MAR1 and S10801; experiment: microbe, parasite or virus in culture; type: cell-based, Salmonella enterica serovar Typhimurium; conditions: for sensitivity of MDR S.Tm to tetracycline: MAR1 and S10801
Description: Increased expression or function of efflux pumps often contributes to clinical multidrug resistance. Therefore, whether the EPMs re-sensitize two multidrug resistant strains of S.Tm to tetracycline was tested. Tetracycline is an antibiotic exported by AcrAB. The MAR1 strain is derived from wild-type SL1344 was selected by exposure to tetracycline, and has increased expression of the AcrAB efflux pump. S10801 is an MDR strain isolated from the mesenteric lymph node of a septic calf and is resistant to tetracycline, ampicillin, chloramphenicol, nalidixic acid, and triple sulfa. The basis of multi-drug resistance in this strain is unknown.
as §4

Structure (SMILES)	Nile Red export (Enterobacter cloacae)	glucose-activated efflux of Nile Red (S.Tm efflux pumps [1])	Nile Red efflux after washout of compound (S.Tm efflux pumps [1])	Nile Red fluorescence in the absence of glucose (basal loss) (S.Tm efflux pumps [1])	Hoechst assay EC50 relative to PAβN (S.Tm efflux pumps [2])	Hoechst accumulation / fluorescence (S.Tm efflux pumps [2]; wild-type S.Tm, 60 minutes)	Nile Red export (E. coli)	Nile Red export (K. pneumoniae)	MIC [3]	decrease of the tetracycline MIC ([4]; 50 μM (⅛ MIC), both strains MAR1 and S10801)	sensitivity of MDR S.Tm to tetracycline [4]	Hoechst accumulation / fluorescence (S.Tm efflux pumps [2])
OC(COc1ccc(Cl)c(Cl)c1)CN1CCC(Nc2nccc(C(F)(F)F)n2)CC1 (centres unmarked) [EPM35]	significantly reduced Nile Red export	fully inhibited efflux	remained unable to efflux	inhibit basal loss of Nile Red	lower than that of PAβN	increased S.Tm accumulation of Hoechst in a dose-dependent manner; also recorded: fluorescence comparable to that of PAβN	significantly reduced Nile Red export	significantly reduced Nile Red export	400 µM and 186 µg/mL	4 fold	increased sensitivity to tetracycline	–
Cc1ccc(Sc2cccc3nc(N)nc(N)c23)cc1 [EPM43]	significantly reduced Nile Red export	only partially inhibited efflux	partially effluxed Nile Red after compound washout; also recorded: partially restored Nile Red export	inhibit basal loss of Nile Red	–	–	significantly reduced Nile Red export	significantly reduced Nile Red export	> 400 µM and 113 µg/mL	–	not	increased S.Tm accumulation of Hoechst in a dose-dependent manner; also recorded: fluorescence comparable to that of PAβN
